Each structure is given as a SMILES string.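 Following 48 hours of exposure in 96-well plates, responses at five concentrations were used to interpolate endpoints linearly. TGI: total growth inhibition.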 A value given as a limit tells only on which side of the number the result lay.

Among the test systems are A549 NSCLC; HCC-2998 colon; HCT-116 colon; HOP-62 NSCLC; HOP-92 NSCLC; KM12 colon; MCF7 breast; NCI-H460 lung; NCI/ADR-RES ovarian; OVCAR-4 ovarian; PC-3 prostate; RPMI-8226 leukemia; SNB-75 CNS; SW-620 colon; U251 CNS; HL-60(TB) leukemia; NCI-H226 lung; SN12C renal; SR leukemia; LOX IMVI melanoma.
Common to all, as to assay: NCI anticancer screen, dose series, 48 h

With `CC(C)(C)OC(=O)NCCC1CNc2ccccc21` (stereo not drawn), the TGI in the assay with A549 NSCLC, with HCC-2998 colon, in the assay on HCT-116 colon, in the assay on HOP-62 NSCLC, in the assay on HOP-92 NSCLC and in the assay on KM12 colon was over 100 µM throughout. Further, the TGI with MCF7 breast, in the assay with NCI-H460 lung, in the assay on NCI/ADR-RES ovarian, in the assay on OVCAR-4 ovarian, in the assay with PC-3 prostate and in the assay with RPMI-8226 leukemia was over 100 µM each time. Besides, the TGI in the assay on SNB-75 CNS, in the assay on SW-620 colon and in the assay on U251 CNS was over 100 µM throughout.
`CCOP(=O)(Nc1ccc(-c2ccc(N)cc2)cc1)OCC`: the TGI in the assay with A549 NSCLC, with HCC-2998 colon, in the assay with HCT-116 colon, in the assay on HOP-62 NSCLC, with HOP-92 NSCLC and in the assay with KM12 colon was over 100 µM each time. Moreover, the TGI in the assay on MCF7 breast, in the assay on NCI-H460 lung, with NCI/ADR-RES ovarian, in the assay with OVCAR-4 ovarian, with PC-3 prostate and in the assay on RPMI-8226 leukemia was over 100 µM in each case. The TGI in the assay with SNB-75 CNS and in the assay with U251 CNS was over 100 µM each time.
Turning to `O=C1CCCCCCCCCCC1CN1CCOCC1` (stereo not drawn), the TGI in the assay on A549 NSCLC, in the assay on HCC-2998 colon, in the assay with HCT-116 colon, in the assay on HL-60(TB) leukemia, in the assay on HOP-62 NSCLC and with HOP-92 NSCLC was over 100 µM throughout. Moreover, the TGI with KM12 colon, with MCF7 breast, in the assay on NCI-H226 lung, in the assay with OVCAR-4 ovarian, in the assay with PC-3 prostate and with RPMI-8226 leukemia was over 100 µM in each case. Further, the TGI in the assay on SN12C renal, with SR leukemia, in the assay on SW-620 colon and in the assay on U251 CNS was over 100 µM in each case.
Take `CCCCc1nc(C)oc1C(C)C`: the TGI in the assay with A549 NSCLC, with HCC-2998 colon, with HCT-116 colon, in the assay on HL-60(TB) leukemia, in the assay with HOP-62 NSCLC and in the assay with HOP-92 NSCLC was over 100 µM in each case. Further, the TGI in the assay on KM12 colon, in the assay on LOX IMVI melanoma, in the assay with MCF7 breast, with NCI-H226 lung, in the assay on NCI-H460 lung and in the assay with NCI/ADR-RES ovarian was over 100 µM in each case. The TGI with OVCAR-4 ovarian, in the assay on PC-3 prostate, with SN12C renal, with SNB-75 CNS, in the assay with SW-620 colon and with U251 CNS was over 100 µM in each case.
For `C/C=C\C(CC(=O)NCCC1CN(C(=O)OCc2ccccc2)c2ccccc21)CC(=O)OC` (stereo not drawn), the TGI in the assay on A549 NSCLC, in the assay with HCC-2998 colon, with HCT-116 colon, with HOP-62 NSCLC, in the assay with HOP-92 NSCLC and in the assay with KM12 colon was over 100 µM throughout. The TGI with MCF7 breast, in the assay with NCI-H460 lung, with NCI/ADR-RES ovarian, in the assay on OVCAR-4 ovarian, in the assay on PC-3 prostate and with RPMI-8226 leukemia was over 100 µM each time. Also, the TGI in the assay with SNB-75 CNS, in the assay with SW-620 colon and in the assay with U251 CNS was over 100 µM in each case.
In the case of `Cc1c(C(=O)Nc2ccccc2)nnn1-c1ccnc2cc(C(F)(F)F)ccc12`, the TGI in the assay on A549 NSCLC is over 100 µM; with HCC-2998 colon, over 100 µM; in the assay with HCT-116 colon, over 100 µM; with HL-60(TB) leukemia it was 77.7 µM; in the assay with HOP-92 NSCLC, 95.4 µM; with KM12 colon it was over 100 µM. Besides, the TGI with LOX IMVI melanoma was 78.1 µM; in the assay on MCF7 breast it was over 100 µM; in the assay on NCI-H226 lung it was over 100 µM; in the assay with NCI-H460 lung it was over 100 µM; in the assay on NCI/ADR-RES ovarian it was over 100 µM; in the assay with OVCAR-4 ovarian, over 100 µM. The TGI in the assay with PC-3 prostate, with SN12C renal, with SNB-75 CNS, in the assay with SW-620 colon and in the assay on U251 CNS was over 100 µM each time.
In the case of `O=S(=O)(O)c1cc(S(=O)(=O)O)c2c(N=Nc3ccc(S(=O)(=O)O)c4ccccc34)c(O)ccc2c1`, the TGI in the assay on A549 NSCLC, in the assay with HCT-116 colon, in the assay with HL-60(TB) leukemia, in the assay with HOP-62 NSCLC, in the assay with HOP-92 NSCLC and in the assay with KM12 colon was over 100 µM each time. In addition, the TGI in the assay on LOX IMVI melanoma, in the assay with NCI-H226 lung, in the assay with NCI/ADR-RES ovarian, in the assay on OVCAR-4 ovarian, in the assay on PC-3 prostate and with RPMI-8226 leukemia was over 100 µM each time. Moreover, the TGI with SN12C renal, in the assay on SNB-75 CNS, in the assay with SW-620 colon and in the assay with U251 CNS was over 100 µM throughout.
In the case of `Cc1cc(C#N)c(Nc2ccc(F)cc2[N+](=O)[O-])s1`, the TGI in the assay with A549 NSCLC was over 100 µM; in the assay with HCC-2998 colon, over 100 µM; in the assay with HCT-116 colon it was over 100 µM; with HOP-62 NSCLC it was over 100 µM; in the assay with HOP-92 NSCLC, 94.6 µM; in the assay on KM12 colon, over 100 µM. Also, the TGI in the assay on NCI-H226 lung, in the assay with NCI-H460 lung, in the assay with NCI/ADR-RES ovarian, with OVCAR-4 ovarian, with PC-3 prostate and with RPMI-8226 leukemia was over 100 µM each time. The TGI in the assay on SN12C renal, in the assay with SNB-75 CNS, in the assay on SR leukemia, with SW-620 colon and with U251 CNS was over 100 µM throughout.

The record behind these values is PubChem BioAssay (NCI).
